Earlier results on one compound are cited in US6770262B2, “Nasal administration of agents for the treatment of gastroparesis” (priority 2000, dated 2004).

Read-outs that look alike come from different tables or passages of the source.

For the data set the following is noted: for onset of action: injection form.

Consider `CCN(CC)CCNC(=O)c1cc(Cl)c(N)cc1OC` [Metoclopramide], for which the “time of peak plasma concentrations” value (after a single oral dose) is 1 to 2 h. Besides, the onset of action is 10 to 15 min (intramuscular administration) and 1 to 3 min (intravenous administration).
